Data from patent publication US20060035212A1, “Molecules inhibiting hepatitis c virus protein synthesis and method for screening same” (Universte Joseph Fourier, priority 2002, published 2006).
Entries after “also recorded” stand apart in the source; their conditions may differ. Like-named read-outs stand apart in the source and are kept apart here.

How the values were obtained:
[1] = test system: HCV IRES-controlled Firefly luciferase synthesis in HeLa cells; assay: Bicistronic construct in HeLa cells: IRES-dependent (cap-independent) translation, Firefly luciferase; assay type: cell-based; details: for inhibition at 2000 µM: 2 mM; for IRES specificity of translation inhibition (in words): IRES-dependent versus cap-dependent translation, HeLa cells
Protocol: (§1) Bicistronic constructs consisting of a first cistron corresponding to the Renilla luciferase gene, followed by the IRES sequence, followed by a second cistron corresponding to the Firefly luciferase gene (pRluc-IRES-Fluc) are prepared in the following way. A plasmid pRL-SV40 (Promega) is linearized with Xba I and dephosphorylated. In parallel, the IRES is amplified with the Firefly luciferase gene by PCR, in the presence of complementary oligonucleotides containing the Xba I sites. The PCR products are then subcloned in plasmid pTrcHis2-TOPO (Invitrogen) in order to control the digestion. The ligation of the insert containing the IRES with the Firefly luciferase gene and the linearized vector pRL-SV40 is carried out using T4 DNA ligase (Biolabs).
(§2) 10^7 HeLa cells suspended in serum-free DMEM are transfected with 1 to 2.5 μg of plasmid pRluc-IRES-Fluc by electroporation at […] for 30 milliseconds using a Gene Pulser (BioRad). […] The Renilla luciferase activity (cap-dependent translation) and that of the Firefly luciferase (cap-independent=viral translation) in the cell lysates is measured and compared by means of the Dual-luciferase assay (Promega) and of a Lumat LB9507 luminometer (Berthold).

[2] = target: T1, p116 RRM/consensus sequence of region II of the HCV IRES complex (Homo sapiens, UniProt P55884); assay: In vitro screening assay: inhibition of binding of the RRM of p116 to the consensus sequence of region II of the IRES (nitrocellulose retention); design: species or system HCV (IRES RNA); eIF3 p116 RRM cDNA from HeLa cells; details: for inhibition of the formation of the RNA-protein complex (in words): 4 different concentrations tested
T1 construct: His6 (C); made in house; host or cells: E. coli BL21lysS
Protocol: (§3) Radiolabeled RNA fragments are obtained by in vitro transcription of the abovementioned templates in the presence of [α-32P]UTP. The RNA fragments are purified in a 6% acrylamide-urea gel and precipitated. The RNA pellets are taken up in 25 mM Tris-HCl, pH 7.4. In order to allow renaturation, the RNA was incubated at 65° C. in the abovementioned buffer for 5-7 min and then slowly cooled to ambient temperature. The renatured RNAs were incubated with increasing concentrations of protein in the same 25 mM Tris-HCl buffer, pH 7.4, at ambient temperature for 5 min.
The mixture of proteins and of RNA is then deposited onto a nitrocellulose membrane washed beforehand with the same buffer. The radioactivity of the filter containing the RNA-protein complexes was measured using a Trilux MicroBeta radioactivity counter (PerkinElmer). […]
The screening assay is carried out as follows. The RRM of p116 and the consensus sequence of region II are incubated in the presence of various aminoglycosides. The RNA mixture is then deposited onto a nitrocellulose membrane under the same conditions as in example 2.

[3] = test system: cap-controlled Renilla luciferase synthesis in HeLa cells; assay: Bicistronic construct in HeLa cells: cap-dependent translation, Renilla luciferase; assay type: cell-based; details: for cap-dependent synthesis, % of control: 2.5 μg of pDNA (FIG. 9C)
Protocol: as §1, §2

[4] = target: entire IRES of HCV; assay: Affinity of the RRM of p116 for the whole IRES by retention on nitrocellulose; assay type: binding; details: 25 mM Tris-HCl pH 7.4, read-out: apparent Kd
Protocol: as §3
The mixture of proteins and of RNA is then deposited onto a nitrocellulose membrane washed beforehand with the same buffer. The radioactivity of the filter containing the RNA-protein complexes was measured using a Trilux MicroBeta radioactivity counter (PerkinElmer).

[5] = concentrations of 1, 2 and 5 mM

Molecule: NC[C@H]1O[C@H](O[C@H]2[C@H](O)[C@@H](O[C@H]3O[C@H](CO)[C@@H](O)[C@H](N)[C@H]3O)[C@H](N)C[C@@H]2N)[C@H](N)C[C@@H]1O [tobramycin]
- inhibition at 1000 µM ([1]; Hepatitis C virus, HeLa, read-out: inhibition of the synthesis of the Firefly luciferase controlled by the IRES): 90.4%
- inhibition at 2000 µM ([1]; Hepatitis C virus, HeLa, 1 μg of plasmid DNA (FIG. 9B), read-out: inhibition of IRES-luciferase synthesis): 83%
- inhibition at 2000 µM ([1]; Hepatitis C virus, HeLa, 2.5 μg of pDNA (FIG. 9C), read-out: inhibition of the IRES-dependent translation): 36.5%
- inhibition at 5000 µM ([1]; Hepatitis C virus, HeLa, 5 mM, 2.5 μg of pDNA (FIG. 9C)): 69%
- IRES specificity of translation inhibition (in words) [1]: the most specific inhibitor of the IRES-controlled translation
- inhibition at 20 µM ([2]; 20 μM): 43%
- inhibition at 40 µM ([2]; 40 μM): 54%
- inhibition of the formation of the RNA-protein complex (in words) [2]: inhibit the formation of the RNA-protein complex at all the concentrations tested; also recorded: capable of dissociating the p116/II complex in vitro, at all the concentrations tested
- synthesis of the Renilla luciferase (cap-controlled), % of the control ([3]; 1 mM, 1 μg of plasmid DNA (FIG. 9B)): 168 % of the control
- cap-dependent synthesis, % of control ([3]; 2 mM): 268 % of control
- cap-dependent synthesis, % of control ([3]; 5 mM): 134 % of control
- inhibition at 2000 µM ([3]; Renilla, HeLa, 2 mM, 1 μg of plasmid DNA (FIG. 9B)): 27%

Molecule: NC[C@@H]1O[C@H](O[C@H]2[C@@H](O)[C@H](O[C@@H]3[C@@H](O)[C@H](N)C[C@H](N)[C@H]3O[C@H]3O[C@H](CO)[C@@H](O)[C@H](O)[C@H]3N)O[C@@H]2CO)[C@H](N)[C@@H](O)[C@@H]1O [paramomycin]
- IRES specificity of translation inhibition (in words) [1]: moderately IRES-specific
- inhibition of IRES-dependent translation [1, 5]: 37%
- inhibition of cap-dependent translation [3, 5]: 6.3%

Molecule: NC[C@H]1O[C@H](O[C@H]2[C@H](O)[C@@H](O[C@H]3O[C@H](CO)[C@@H](O)[C@H](N)[C@H]3O)[C@H](N)C[C@@H]2N)[C@H](O)[C@@H](O)[C@@H]1O [kanamycin A]
- inhibition of the p116 RRM/II complex ([2]; 20 μM): 0%
- inhibition of the p116 RRM/II complex ([2]; 40 μM): 0%
- inhibition of the p116 RRM/II complex ([2]; 80 μM): 0%

Molecule: NC[C@H]1O[C@H](O[C@H]2[C@H](O)[C@@H](O[C@H]3O[C@H](CO)[C@@H](O)[C@H](N)[C@H]3O)[C@H](N)C[C@@H]2N)[C@H](N)[C@@H](O)[C@@H]1O [kanamycin B]
- inhibition of the p116 RRM/II complex ([2]; 20 μM): 22%

Molecule: [H]/N=C(/N)N[C@H]1[C@H](O)[C@@H](O)[C@H](O[C@@H]2O[C@@H](C)[C@](O)(C=O)[C@H]2O[C@@H]2O[C@@H](CO)[C@H](O)[C@@H](O)[C@@H]2NC)[C@@H](N/C(N)=N\[H])[C@@H]1O [streptomycin]
- IRES specificity of translation inhibition (in words) [1]: inhibits the translation of the two cistrons in an IRES-nonspecific manner
- inhibition at 20 µM ([2]; 20 μM): 25%
- inhibition at 40 µM ([2]; 40 μM): 36%
- inhibition of the formation of the RNA-protein complex (in words) [2]: inhibit the formation of the RNA-protein complex at all the concentrations tested

Molecule: CN[C@@H]1[C@@H](O)[C@@H](O[C@@H]2[C@@H](O)[C@H](O[C@H]3O[C@H]([C@@H](C)O)[C@@H](O)[C@H](O)[C@H]3N)[C@@H](N)C[C@H]2N)OC[C@]1(C)O [G418]
- IRES specificity of translation inhibition (in words) [1]: inhibit both the cap-dependent and IRES-dependent translation in an IRES-nonspecific manner

B1: RRMp116: recombinant RNA recognition motif of the eIF3 p116 subunit (SEQ ID 5), C-terminal His6-Tag (protein)
chain: MDRPQEADGIDSVIVVDNVPQVGPDRLEKLKNVIHKIFSKFGKITNDFYPEEDGKTKGYIFLEYASPAHAVDAVKNADGYKLDKQHTFRVNLFTDFDKYMTISDEW
modifications: C-terminal His6 tag; p116 175..279 corresponds to a portion (RRM) of eIF3 p116 subunit
- Kd [4]: 800 nM
